In PubChem BioAssay (NCI):
Where “and” joins values, the source holds several entries; their conditions need not be identical. Identical values can stand only once.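 How tested: cells in 96-well plates exposed to compound for 48 hours at five concentrations. Here, GI50 denotes the concentration required for 50% inhibition of growth. TGI marks complete inhibition of growth.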

Experiments:
Experiment in all cases: NCI anticancer screen, dose series, 48 h
NCI-H226 lung = test system: NCI-H226 lung
NCI-H23 lung = test system: NCI-H23 lung
NCI-H460 lung = test system: NCI-H460 lung
NCI-H522 lung = test system: NCI-H522 lung
NCI/ADR-RES ovarian = test system: NCI/ADR-RES ovarian
OVCAR-3 ovarian = test system: OVCAR-3 ovarian
OVCAR-4 ovarian = test system: OVCAR-4 ovarian
OVCAR-5 ovarian = test system: OVCAR-5 ovarian
OVCAR-8 ovarian = test system: OVCAR-8 ovarian
PC-3 prostate = test system: PC-3 prostate
RPMI-8226 leukemia = test system: RPMI-8226 leukemia
RXF 393 renal = test system: RXF 393 renal
SF-268 CNS = test system: SF-268 CNS
SF-295 CNS = test system: SF-295 CNS
SF-539 CNS = test system: SF-539 CNS
SK-MEL-2 melanoma = test system: SK-MEL-2 melanoma
SK-MEL-28 melanoma = test system: SK-MEL-28 melanoma
SK-MEL-5 melanoma = test system: SK-MEL-5 melanoma
SK-OV-3 ovarian = test system: SK-OV-3 ovarian
SN12C renal = test system: SN12C renal
SNB-19 CNS = test system: SNB-19 CNS
SNB-75 CNS = test system: SNB-75 CNS
SR leukemia = test system: SR leukemia
SW-620 colon = test system: SW-620 colon
T-47D breast = test system: T-47D breast
TK-10 renal = test system: TK-10 renal
U251 CNS = test system: U251 CNS
UACC-257 melanoma = test system: UACC-257 melanoma
UACC-62 melanoma = test system: UACC-62 melanoma
UO-31 renal = test system: UO-31 renal

CC1CCCc2sc3nc(NNC(=O)c4cnccn4)n(-c4ccccc4)c(=O)c3c21 (stereo not drawn) was tested, and the TGI (NCI-H226 lung) was 9600 nM and 5750 nM, the GI50 (NCI-H23 lung) was 871 nM and 465 nM and the TGI (NCI-H23 lung) was > 100000 nM and 26500 nM. For the same compound, the GI50 (NCI-H460 lung) was 250 nM and 121 nM, the TGI (NCI-H460 lung) was 11400 nM and 2270 nM and the GI50 (NCI-H522 lung) was 392 nM and 327 nM. The TGI (NCI-H522 lung) was 10200 nM and 16600 nM, the GI50 (NCI/ADR-RES ovarian) was 380 nM and 232 nM and the GI50 (OVCAR-3 ovarian) was 288 nM and 249 nM. For the same compound, the TGI (OVCAR-3 ovarian) was 22200 nM and 12500 nM, the GI50 (OVCAR-4 ovarian) was 211 nM and 215 nM and the TGI (OVCAR-4 ovarian) was > 100000 nM. For the same compound, the GI50 (OVCAR-5 ovarian) was 656 nM and 371 nM, the TGI (OVCAR-5 ovarian) was 30900 nM and 33600 nM and the GI50 (OVCAR-8 ovarian) was 346 nM and 333 nM. The TGI (OVCAR-8 ovarian) was > 93200 nM, the GI50 (PC-3 prostate) was 499 nM and 385 nM and the TGI (PC-3 prostate) was 22200 nM and 26600 nM. For the same compound, the GI50 (RPMI-8226 leukemia) was 563 nM and 277 nM, the TGI (RPMI-8226 leukemia) was 17900 nM and 16600 nM and the GI50 (RXF 393 renal) was 955 nM and 454 nM. For the same compound, the TGI (RXF 393 renal) was 5480 nM and 3840 nM, the GI50 (SF-268 CNS) was 346 nM and 207 nM and the TGI (SF-268 CNS) was > 100000 nM. The GI50 (SF-295 CNS) was 479 nM and 159 nM, the TGI (SF-295 CNS) was 15400 nM and 7810 nM and the GI50 (SF-539 CNS) was 658 nM and 328 nM. For the same compound, the TGI (SF-539 CNS) was 10300 nM and 4320 nM, the GI50 (SK-MEL-2 melanoma) was 1050 nM and 705 nM and the TGI (SK-MEL-2 melanoma) was 19400 nM and 19800 nM. For the same compound, the GI50 (SK-MEL-28 melanoma) was 485 nM and 378 nM, the TGI (SK-MEL-28 melanoma) was 19800 nM and 32500 nM and the GI50 (SK-MEL-5 melanoma) was 371 nM and 205 nM. The TGI (SK-MEL-5 melanoma) was 1810 nM and 933 nM, the GI50 (SK-OV-3 ovarian) was 489 nM and 544 nM and the TGI (SK-OV-3 ovarian) was 8420 nM and 8200 nM. For the same compound, the GI50 (SN12C renal) was 468 nM and 368 nM, the TGI (SN12C renal) was 15900 nM and 13700 nM and the GI50 (SNB-19 CNS) was 389 nM and 340 nM. The TGI (SNB-19 CNS) was > 100000 nM, the GI50 (SNB-75 CNS) was 1060 nM and 899 nM and the TGI (SNB-75 CNS) was 38700 nM and > 50000 nM. The GI50 (SR leukemia) was 361 nM and 110 nM, the TGI (SR leukemia) was > 32600 nM and the GI50 (SW-620 colon) was 483 nM and 463 nM. For the same compound, the TGI (SW-620 colon) was > 100000 nM, the GI50 (T-47D breast) was 520 nM and 397 nM and the TGI (T-47D breast) was > 100000 nM. The GI50 (TK-10 renal) was 686 nM and 329 nM, the TGI (TK-10 renal) was > 83000 nM and the GI50 (U251 CNS) was 260 nM and 182 nM. The TGI (U251 CNS) was > 40800 nM and 30100 nM, the GI50 (UACC-257 melanoma) was 540 nM and 365 nM and the TGI (UACC-257 melanoma) was 6980 nM and 3860 nM. For the same compound, the GI50 (UACC-62 melanoma) was 296 nM and 258 nM, the TGI (UACC-62 melanoma) was 2200 nM and 1110 nM and the GI50 (UO-31 renal) was 214 nM and 151 nM. For the same compound, the TGI (UO-31 renal) was 6470 nM and 2960 nM.
